Laboratory results reported in publication PMC2409523, “Hormonal impact of the 17α-hydroxylase/C17,20-lyase inhibitor abiraterone acetate (CB7630) in patients with prostate cancer” (British Journal of Cancer, 2004).

How the values were obtained:
testosterone synthesis = experiment: Study A: single dose study in castrate males with prostate cancer, serum hormone levels; format: in vivo, human; details: single dose of 500 mg, castrate males
Method: Significant suppression was defined as either testosterone <0.14 nmol l^−1 in individual patients with a pretreatment value of <0.6 nmol l^−1 or a ⩾75% reduction in individual patients with a pretreatment value of ⩾0.6 nmol l^−1.
This was a single-centre, open-label, phase one, single-dose study in which sequential cohorts of three medically or surgically castrate patients were to receive treatment at five dose levels: starting at 10 mg and increasing to 30, 100, 200 and 500 mg. […] A confirmatory testosterone level of between 0.2 and 2.0 nmol l^−1 was also required.
Serum samples for endocrine analysis were obtained at 0, 2, 4, 8 and 24 h on a single day in the week prior to treatment commencement and then on Days 1, 2, 3, 4 and 7. As the duration of testosterone suppression was longer than originally anticipated, additional samples were added on Days 10, 14 and 21. The serum samples were analysed for testosterone, cortisol, 17 α-hydroxyprogesterone (17HP), androstenedione, LH and follicle-stimulating hormone (FSH) using commercially available kits. However, the DPC Coat-a-count kit for testosterone was sensitised using a larger volume of sample/standard and extension of the standard curve. […] All endocrine analyses were conducted by radioimmunoassay except for LH and FSH, which were by enzyme immunoassay.

[1] = Pharmacokinetics in patient plasma (LC-MS); format: in vivo, human; details: at the dose levels studied, all three studies combined
Method: Sample extracts were analysed by a fully validated liquid chromatography mass spectrometry method. The instrument consisted of Wisp Model 717 autosampler including a Model 600MS system controller with a quaternary U6K LC pump. A Finnigan MAT TSQ 700 triple quadrupole mass spectrometer was used as the detection system, together with Finnigan MAT ICIS and ICL software for data capture and processing (ThermoQuest Ltd, San Jose, CA, USA). The separation of analytes was performed on a Supelcosil LC-ABZ (5 μm, 250 × 4.6 mm) analytical column protected by a guard column (Supelco, Bellefonte, PA, USA). The mobile phase consisted of 570 ml of 20 mM ammonium acetate solution, 100 ml tetrahydrofuran and 1330 ml acetonitrile and was delivered at a flow rate of 1 ml min^−1 throughout the system. Column eluant was subjected to electrospray ionisation and monitored by selected ion monitoring (SIM) of protonated pseudo-molecular ions of authentic standards of abiraterone acetate and abiraterone, and GP488 (an analogue of abiraterone used as internal standard). For SIM, the scan width was 0.25 and the total scan time was 2.99 s. Also, heated capillary temperature=250°C, spray voltage=4.5 kV, collision offset=−49.9 V and electron multiplier voltage=1200 eV. Samples were extracted as follows: 50 μl of acetonitrile and 40 μl of 50 μM GP488 internal standard were added to 500 μl of patient plasma. […] The dried residue was reconstituted by vortexing in 150 μl of acetonitrile and transferred into autosampler vials. Aliquots (100 μl) of these samples were injected onto the LC column. […] A comprehensive PK profile (Cmax, Tmax, T1/2α T1/2 and Kabs) was determined for each patient. Pharmacokinetic parameters were evaluated using WinNonLin Software® and were conducted at The Institute of Cancer Research (Sutton). Blood was sampled for analysis of abiraterone concentration prior to drug administration and at the following times on Day 1: 30 min, 1, 2, 4, 6, 8 and 12 h. In the multidose study, samples were also drawn prior to treatment on Days 2, 3, 4, 7, 8, 9, 10, 11 and 14 with additional samples on Days 21 and 28. Samples (7 ml) were collected into vacutainer tubes (BD, Rutherford, NJ, USA) containing EDTA and immediately centrifuged to separate the plasma. At least 2 ml of plasma was transferred into polypropylene tubes (NUNC) and frozen at –20° until analysis.

## CC(=O)O[C@H]1CC[C@@]2(C)C(=CC[C@@H]3[C@@H]2CC[C@]2(C)C(c4cccnc4)=CC[C@@H]32)C1 [abiraterone acetate]
Testosterone synthesis
  patients with suppression of testosterone levels to <0.14 nmol l^−1: four out of six
[1]
  saturation of drug absorption: no evidence of saturation of drug absorption
